Results from patent publication US20260274904A1, “ANTIMICROBIAL NCR2 PEPTIDES” (Donald Danforth Plant Science Center, priority 2019, published 2026).
In brackets after ≈: the same amount, converted by molar mass. Entries after “also recorded” stand apart in the source; their conditions may differ. Where two headings read alike, the source gives them in different places. Where a SMILES comes first, the peptide text is derived from it.

Experiments:
[1] = Protein-phospholipid overlay assay (PIP Strips); conditions: protein-lipid overlay, 1 μg/ml peptide, 100 pmol lipid per spot
Experimental: (§2) Briefly, lipid strips were blocked with 10 mL of blocking buffer, PBS-T/3% fat free BSA for 12-16 h at 4° C. with gentle agitation. […] After hybridization, protein solution was discarded and the strips were then washed with PBS-T three times with gentle agitation for 20 minutes each for 1 hour at room temperature. […] The lipid strips were washed with PBS-T two times with gentle agitation, for 15 minutes each wash, at room temperature. HRP-conjugated Mouse Anti-Rabbit IgG secondary antibody (GenScript Cat no A01827) diluted 1:4000 in blocking buffer was added to the lipid strips and incubated for 60 minutes at 4° C. After two washes with PBS-T, chemiluminescence was detected using SuperSignal® West Pico PLUS Sensitivity substrate kit (Thermo Scientific, Cat no: 34080 following the manufacturer's protocol.

[2] = system: Phytophthora capsici LT263
[3] = Protein-phospholipid overlay assay (PIP Strips); conditions: protein-lipid overlay, 1 μg/ml peptide, 100 pmol lipid per spot; remark: listed apart in the source
Experimental: as §2

F. oxysporum [4] = assay: Resazurin cell viability assay; assay type: cell-based, Fusarium oxysporum
Experimental: (§1) The antifungal and anti-oomycete activity was conducted as described previously (Spelbrink et al. 2004; Sagaram et al. 2011; Velivelli et al. 2018) with minor modifications. The antifungal and anti-oomycete activity of NCR peptides were determined in an in vitro assay using 96-well microtiter plates. Fifty microliters of each protein dilution (0, 0.1, 0.3, 0.7, 1.5, 3 and 6 μM) was added to each well of the microtiter plate containing 50 μL of (zoo)spore suspension prepared in 2×SFM at a final concentration of 10^5 (zoo)spores/ml. The plates were incubated at room temperature and the quantitative fungal growth inhibition was estimated by measuring the absorbance at 595 nm using a Tecan Infinite M200 Pro (Tecan Systems Inc., San Jose, CA) microplate reader at 48 hours. The fungal/oomycete cell viability/cell killing was determined by the resazurin cell viability assay. After incubation at 48 hours, 10 μl of 0.1% resazurin solution was added to each well and re-incubated overnight. A change from blue to pink color indicates reduction of resazurin and cell viability.

[5] = system: Fusarium graminearum PH-1; assay type: cell-based; conditions: F. graminearum, absorbance at 595 nm at 48 hours
[6] = Protein-phospholipid overlay assay (PIP Strips); conditions: protein-lipid overlay, 1 μg/ml peptide, 100 pmol lipid per spot; remark: listed apart in the source
Experimental: as §2

[7] = Protein-phospholipid overlay assay (PIP Strips); conditions: protein-lipid overlay, 1 μg/ml peptide, 100 pmol lipid per spot; remark: listed apart in the source
Experimental: as §2

F. oxysporum [8] = system: F. oxysporum
P. capsici = assay: Resazurin cell viability assay; assay type: cell-based, Phytophthora capsici
Botrytis cinerea [9] = conditions: for antifungal activity compared with the antifungal activity of NCR2 monomer: against B. cinerea
Botrytis cinerea [10] = assay: Detached lettuce leaf infection assay (in planta antifungal activity); assay type: in vivo; conditions: detached iceberg lettuce leaves, peptide 3, 6, and 12 μM drop inoculated, 48 hours
F. virguliforme [11] = system: F. virguliforme
F. virguliforme [12] = assay: Resazurin cell viability assay; assay type: cell-based, Fusarium virguliforme
Experimental: as §1

[13] = Protein-phospholipid overlay assay (PIP Strips); conditions: protein-lipid overlay, 1 μg/ml peptide, 100 pmol lipid per spot; remark: listed apart in the source
Experimental: as §2

[14] = Protein-phospholipid overlay assay (PIP Strips); conditions: protein-lipid overlay, 1 μg/ml peptide, 100 pmol lipid per spot; remark: listed apart in the source
Experimental: as §2

[15] = Protein-phospholipid overlay assay (PIP Strips); conditions: protein-lipid overlay, 1 μg/ml peptide, 100 pmol lipid per spot; remark: listed apart in the source
Experimental: as §2

[16] = Protein-phospholipid overlay assay (PIP Strips); conditions: protein-lipid overlay, 1 μg/ml peptide, 100 pmol lipid per spot; remark: listed apart in the source
Experimental: as §2

[17] = Protein-phospholipid overlay assay (PIP Strips), overall; conditions: protein-lipid overlay, 1 μg/ml peptide, 100 pmol lipid per spot
Experimental: as §2

F. graminearum = assay type: cell-based, Fusarium graminearum
Fusarium species = assay type: cell-based, Fusarium sp.; conditions: against F. oxysporum, F. graminearum and F. virguliforme
[18] = B. cinerea, absorbance at 595 nm at 48 hours
[19] = P. capsici zoospores, absorbance at 595 nm at 48 hours

In the case of CC[C@H](C)[C@H](NC(=O)[C@H](CCCNC(=N)N)NC(=O)[C@H](CCCNC(=N)N)NC(=O)[C@H](CCCNC(=N)N)NC(=O)[C@@H](NC(=O)[C@H](CS)NC(=O)[C@H](Cc1ccc(O)cc1)NC(=O)CNC(=O)[C@H](CCCCN)NC(=O)[C@H](CCCNC(=N)N)NC(=O)[C@H](CS)NC(=O)[C@H](CCCNC(=N)N)NC(=O)[C@H](C)NC(=O)[C@H](CCCNC(=N)N)NC(=O)[C@H](Cc1ccc(O)cc1)NC(=O)[C@H](CC(N)=O)NC(=O)[C@H](CCCCN)NC(=O)[C@@H](NC(=O)[C@@H](NC(=O)[C@H](CO)NC(=O)[C@H](CS)NC(=O)[C@H](CCC(=O)O)NC(=O)[C@H](CCCCN)NC(=O)[C@H](CC(=O)O)NC(=O)[C@H](CO)NC(=O)[C@@H](NC(=O)[C@H](CS)NC(=O)[C@@H]1CCCN1C(=O)[C@H](CCCCN)NC(=O)[C@H](CO)NC(=O)[C@H](CC(C)C)NC(=O)[C@H](CCC(N)=O)NC(=O)[C@@H](NC(=O)[C@H](Cc1ccccc1)NC(=O)[C@H](C)N)[C@@H](C)CC)[C@@H](C)CC)[C@@H](C)CC)C(C)C)C(C)C)C(=O)N[C@@H](CCCNC(=N)N)C(=O)O [NCR2] (H-AFIQLSKPCISDKECSIVKNYRARCRKGYCVRRRIR-OH; N-terminus and C-terminus assumed), the “binding to PI(3,4)P2” value [1] is reported as “bound weakly”, the IC50 ([2]; 48 h) is reported as 2 µM and the MIC ([2]; 48 h) is reported as 3 µM (≈ 13 µg/mL). The “binding to PI(4,5)P2” value [3] was “bound weakly”, the “concentration at which cells were killed (resazurin assay)” value (“concentration at which cells were killed” for short) (F. oxysporum [4]) was 1.5 µM and the IC50 [5] was 1.5 to 2 µM. For the same molecule, the “binding to phosphatidic acid (PA)” value [6] was “bound weakly”, the “binding to PI(3,4,5)P3” value [7] was “bound weakly” and the IC50 (F. oxysporum [8]; 48 h) was 0.5 µM. For the same molecule, the “concentration of cell death (resazurin assay)” value (“concentration of cell death” for short) (P. capsici) was 3 µM, the IC50 (Botrytis cinerea [9]; 48 h) was 1.5 µM and the MIC (Botrytis cinerea [9]; 48 h) was 2 to 3 µM. For the same molecule, the “size of disease lesions caused by Botrytis cinerea” value (“size of disease lesions caused” for short) (Botrytis cinerea [10]) was “smaller lesions compared to no peptide control”, the MIC (F. virguliforme [11]; 48 h) was 3 µM (≈ 13 µg/mL) and the “concentration at which cells were killed” value (F. virguliforme [12]) was 3 µM. For the same molecule, the “binding to PI(3,5)P2” value [13] was “strongly binds”, the “binding to PI(5)P” value [14] was “bound weakly” and the “binding to PI(3)P” value [15] was “bound weakly”. The “binding to PI(4)P” value [16] was “bound weakly”, the “binding to phospholipids (overall)” value [17] was “bind to multiple phospholipids” and the “concentration at which cells were killed” value (F. graminearum) was 3 µM.

In the case of CC[C@H](C)[C@H](NC(=O)[C@H](CCCNC(=N)N)NC(=O)[C@H](CCCNC(=N)N)NC(=O)[C@H](CCCNC(=N)N)NC(=O)[C@@H](NC(=O)[C@H](CS)NC(=O)[C@H](Cc1ccc(O)cc1)NC(=O)CNC(=O)[C@H](CCCCN)NC(=O)[C@H](CCCNC(=N)N)NC(=O)[C@H](CS)NC(=O)[C@H](CCCNC(=N)N)NC(=O)[C@H](C)NC(=O)[C@H](CCCNC(=N)N)NC(=O)[C@H](Cc1ccc(O)cc1)NC(=O)[C@H](CC(N)=O)NC(=O)[C@H](CCCCN)NC(=O)[C@@H](NC(=O)[C@@H](NC(=O)[C@H](CO)NC(=O)[C@H](CS)NC(=O)[C@@H]1CCCN1C(=O)CNC(=O)[C@H](CCCCN)NC(=O)[C@H](Cc1ccccc1)NC(=O)[C@H](CCCCN)NC(=O)[C@H](Cc1c[nH]cn1)NC(=O)[C@H](CS)NC(=O)[C@@H]1CCCN1C(=O)[C@H](CCCCN)NC(=O)[C@H](CO)NC(=O)[C@H](CC(C)C)NC(=O)[C@H](CCC(N)=O)NC(=O)[C@@H](NC(=O)[C@H](Cc1ccccc1)NC(=O)[C@H](C)N)[C@@H](C)CC)[C@@H](C)CC)C(C)C)C(C)C)C(=O)N[C@@H](CCCNC(=N)N)C(=O)O [NCR2_V1] (H-AFIQLSKPCHKFKGPCSIVKNYRARCRKGYCVRRRIR-OH), the “binding to PI(3,4)P2” value [1] is reported as “weakly”, the IC50 ([2]; 48 h) is reported as 2 µM and the MIC ([2]; 48 h) is reported as 3 µM (≈ 13.3 µg/mL). For the same molecule, the “binding to PI(4,5)P2” value [3] was “weakly”, the “binding to phosphatidic acid (PA)” value [6] was “weakly” and the “binding to PI(3,4,5)P3” value [7] was “No binding”. The “concentration of cell death” value (P. capsici) was 3 µM, the IC50 (Botrytis cinerea [9]; 48 h) was 1.5 µM and the MIC (Botrytis cinerea [9]; 48 h) was 2 to 3 µM. For the same molecule, the “size of disease lesions caused” value (Botrytis cinerea [10]) was “much smaller lesions; also recorded: effective in reducing the size of disease lesions”, the “size of disease lesions caused” value (Botrytis cinerea [10]; listed as NCR2 V1) was “effective in reducing the sizes of disease lesions” and the “binding to PI(3,5)P2” value [13] was “weakly”. The “binding to PI(5)P” value [14] was “bound tightly; also recorded: greater affinity than the wild-type NCR2 peptide”, the “binding to PI(3)P” value [15] was “bound tightly; also recorded: greater affinity than the wild-type NCR2 peptide” and the “binding to PI(4)P” value [16] was “bound tightly; also recorded: greater affinity than the wild-type NCR2 peptide”. The “binding to phospholipids (overall)” value [17] was “bind to multiple phospholipids”.

In the case of CC[C@H](C)[C@H](NC(=O)[C@H](CCCNC(=N)N)NC(=O)[C@H](CCCNC(=N)N)NC(=O)[C@H](CCCNC(=N)N)NC(=O)[C@@H](NC(=O)[C@H](CS)NC(=O)[C@H](Cc1ccc(O)cc1)NC(=O)CNC(=O)[C@H](CCCCN)NC(=O)[C@H](CCCNC(=N)N)NC(=O)[C@H](CS)NC(=O)[C@H](CCCNC(=N)N)NC(=O)[C@H](C)NC(=O)[C@H](CCCNC(=N)N)NC(=O)[C@H](Cc1ccc(O)cc1)NC(=O)[C@H](CC(N)=O)NC(=O)[C@H](CCCCN)NC(=O)[C@@H](NC(=O)[C@@H](NC(=O)[C@H](CO)NC(=O)[C@H](CS)NC(=O)[C@H](CCC(=O)O)NC(=O)[C@H](CCCCN)NC(=O)[C@H](CC(=O)O)NC(=O)[C@H](CO)NC(=O)[C@@H](NC(=O)[C@H](CS)NC(=O)[C@@H]1CCCN1C(=O)[C@H](CCCCN)NC(=O)[C@H](CO)NC(=O)[C@H](CC(C)C)NC(=O)[C@H](CCC(N)=O)NC(=O)[C@@H](NC(=O)[C@H](CS)NC(=O)[C@H](Cc1ccccc1)NC(=O)[C@H](C)N)[C@@H](C)CC)[C@@H](C)CC)[C@@H](C)CC)C(C)C)C(C)C)C(=O)N[C@@H](CCCNC(=N)N)C(=O)N[C@@H](CS)C(=O)O [NCR2_V2] (H-AFCIQLSKPCISDKECSIVKNYRARCRKGYCVRRRIRC-OH; N-terminus and C-terminus assumed), the IC50 ([2]; 48 h) is reported as 3 µM, the MIC ([2]; 48 h) is reported as 6 µM (≈ 27.1 µg/mL) and the “concentration of cell death” value (P. capsici) is reported as 6 µM. For the same molecule, the IC50 (Botrytis cinerea [9]; 48 h) was 2 µM, the MIC (Botrytis cinerea [9]; 48 h) was 3 µM (≈ 13.6 µg/mL) and the “size of disease lesions caused” value (Botrytis cinerea [10]) was “much smaller lesions; also recorded: effective in reducing the sizes of disease lesions”. The “binding to phospholipids (overall)” value [17] was “not found to bind to any phospholipids; also recorded: does not bind to any Phospholipids” and the “binding to phospholipids (overall)” value ([17]; listed as NCR2 V2) was “does not bind to any phospholipids”.

With “AFIQLSKPCISDKECSIVKNYRARCRKGYCVRRRIRGGKAGKKAPKAFIQLSKPCISDKECSIVKNYRARCRKGYCVRRRIR [NCR2-L2-NCR2]” the IC50 [5] was 1 µM, the MIC [5] was 1.5 µM and the “increase in the antifungal activity of dimer compared with the monomer” value (Fusarium species) was “Two-fold increase”. It also gave an IC50 (F. oxysporum [8]) of 0.3 µM, an MIC (F. oxysporum [8]) of 0.75 µM and an IC50 (Botrytis cinerea [9]; [18]) of 0.75 µM. For the same molecule, the MIC (Botrytis cinerea [9]; [18]) was 1.5 µM, the “antifungal activity compared with the antifungal activity of NCR2 monomer” value (Botrytis cinerea [9]) was “significant increase” and the MIC (F. virguliforme [11]) was 1.5 µM.

B1: AFIQLSKPCISDKECSIVKNYRARCRKGYCVRRRIRAPKKVEPAFIQLSKPCISDKECSIVKNYRARCRKGYCVRRRIR (protein)
chain: AFIQLSKPCISDKECSIVKNYRARCRKGYCVRRRIRAPKKVEPAFIQLSKPCISDKECSIVKNYRARCRKGYCVRRRIR
notes: two copies of NCR2 linked in tandem by linker peptide APKKVEP (L1)
Work on B1 yielded an IC50 [2, 19] of 2 µM, an MIC [2, 19] of 3 µM and an IC50 [5] of 1 µM. The MIC [5] was 1.5 µM, the “increase in the antifungal activity of dimer compared with the monomer” value (Fusarium species) was “Two-fold increase” and the IC50 (F. oxysporum [8]) was 0.3 µM. The MIC (F. oxysporum [8]) was 0.75 µM, the “concentration of cell death” value (P. capsici) was 3 µM and the IC50 (Botrytis cinerea [9]; [18]) was 0.75 µM. The MIC (Botrytis cinerea [9]; [18]) was 1.5 µM, the “antifungal activity compared with the antifungal activity of NCR2 monomer” value (Botrytis cinerea [9]) was “significant increase” and the MIC (F. virguliforme [11]) was 1.5 µM.
